Assay: recombinant barcode read abundance after kanamycin selection (control-corrected) (log10(CPM+1)); higher = more efficient recombination; sequences stand for … in AGTGCAGAGAAAATCGGCCAGTTTTCTCTGCCTGCAGTCCGCATGCCGT…AGATTTATGCAGCGGACTGCCTTTCTCCCAAAGTGATAAACCGGACAGTATCATGGACCGGTTTTCCCGGTAATCCGTATTTGCAAGGTTGGTTTCACT; site = the 11-nt target
Procedure: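 Pooled E. coli target-specificity screen for the IS621 bridge recombinase. Each library plasmid pairs an 11-nt target (CT core) with a bridge RNA whose target-binding loop (9-nt LTG + 4-nt RTG) is reprogrammed; the rest of the 177-nt WT IS621 bridge RNA scaffold is fixed. The plasmid is co-electroporated with a WT donor plasmid; recombinase is induced with 0.1 mM IPTG and recombinants are selected on kanamycin. Recombinant barcodes are sequenced, converted to CPM, averaged over two biological replicates and corrected by the unselected control CPM. Molecule = full bridge RNA written as DNA: LTG = specificity nt 1-9, RTG = reverse complement of specificity nt 8-11, in the WT scaffold.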
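Note: IS621 recombinase and bridge RNA in Escherichia coli cells.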

Compared with “AGACTCCCTTGGGTTCTAACCTGTTGCCT (site AGTCTCCCTAG)”, “AGAGAACCTTGGGTTCTAACCTGTTGCCT (site AGAGAACCTAG)” is higher in “recombinant barcode read abundance (log10)” value: 0.213 for the first, 2.33 for the second.

“AGAGAACCTTGGGTTCTAACCTGTTGCCT (site CGAGAACCTAG)” and “AGAGAACCTTGGGTTCTAACCTGTTGCCT (site GGAGAACCTAG)” are within 0.2 log units of each other in “recombinant barcode read abundance (log10)” value: 0.415 for the first, 0.219 for the second.

“AGAGAACCTTGGGTTCTAACCTGTTGCCT (site TGAGAACCTAG)” and “AGAGAATCTTGGGTTCTAACCTGTTGCCT (site AGAGAATCTAG)” are within 0.2 log units of each other in “recombinant barcode read abundance (log10)” value: 1.14 for the first, 1.28 for the second.

“AGAGAATCTTGGGTTCTAACCTGTTGCCT (site AGCGAATCTAG)” and “AGAGAATCTTGGGTTCTAACCTGTTGCCT (site AGGGAATCTAG)” are within 0.2 log units of each other in “recombinant barcode read abundance (log10)” value: 0.165 for the first, 0.13 for the second.

Going from “AGAGAATCTTGGGTTCTAACCTGTTGCCT (site AGTGAATCTAG)” to “AGAGATGCTTGGGTTCTAACCTGTTGCAG (site AGAGATGCTCT)”, the “recombinant barcode read abundance (log10)” value rises from 0.196 to 1.8.

Compared with “AGAGATGCTTGGGTTCTAACCTGTTGCAG (site AGAGGAGCTCT)”, “AGAGCCACTTGGGTTCTAACCTGTTGCTA (site AGAGCCACTTA)” is higher in “recombinant barcode read abundance (log10)” value: 0.289 for the first, 2.09 for the second.

Going from “AGAGCCACTTGGGTTCTAACCTGTTGCTA (site GCCATTCCTAT)” to “AGAGGGTCTTGGGTTCTAACCTGTTGCTT (site AGAGGGTCTAA)”, the “recombinant barcode read abundance (log10)” value rises from 0.0124 to 1.82.

“AGAGGGTCTTGGGTTCTAACCTGTTGCTT (site CGAGGGTCTAA)” and “AGAGGGTCTTGGGTTCTAACCTGTTGCTT (site GGAGGGTCTAA)” are within 0.2 log units of each other in “recombinant barcode read abundance (log10)” value: 0.186 for the first, 0.0269 for the second.

Compared with “AGAGGGTCTTGGGTTCTAACCTGTTGCTT (site TGAGGGTCTAA)”, “AGATCGGCTTGGGTTCTAACCTGTTGCCT (site AGATCGGCTAG)” is lower in “recombinant barcode read abundance (log10)” value: 0.606 for the first, 0.377 for the second.

Going from “AGATCGGCTTGGGTTCTAACCTGTTGCCT (site AGGTCGGCTAG)” to “AGATTGACTTGGGTTCTAACCTGTTGCCA (site AGATTCACTAG)”, the “recombinant barcode read abundance (log10)” value rises from 0.0375 to 0.328.

First: AGATTGACTTGGGTTCTAACCTGTTGCCA (site AGATTGACTTG)
Second: AGATTGCCTTGGGTTCTAACCTGTTGCCT (site AGATTGCCTAG)
The “recombinant barcode read abundance (log10)” value of the first is lower: 0.193 for the first, 0.489 for the second.

First: AGATTGCCTTGGGTTCTAACCTGTTGCCT (site TGATTTCCTAG)
Second: AGCAGAGCTTGGGTTCTAACCTGTTGCGG (site AGCAGAGCTCA)
The “recombinant barcode read abundance (log10)” value of the first is lower: 0 for the first, 1.12 for the second.

First: AGCAGAGCTTGGGTTCTAACCTGTTGCGG (site AGCAGAGCTCC)
Second: AGCAGAGCTTGGGTTCTAACCTGTTGCGG (site AGCAGAGCTCG)
The “recombinant barcode read abundance (log10)” value of the first is higher: 1.95 for the first, 0.0598 for the second.

First: AGCAGAGCTTGGGTTCTAACCTGTTGCGG (site AGCAGAGCTCT)
Second: AGCAGCCCTTGGGTTCTAACCTGTTGCAG (site AGCAGCCCTCT)
The “recombinant barcode read abundance (log10)” value of the first is lower: 1.1 for the first, 1.72 for the second.

“AGCAGCCCTTGGGTTCTAACCTGTTGCAG (site GTTCCAGCTAG)” and “AGCATAACTTGGGTTCTAACCTGTTGCCT (site AGCATAACTAG)” are within 0.2 log units of each other in “recombinant barcode read abundance (log10)” value: 0.0963 for the first, 0.187 for the second.

“AGCATAACTTGGGTTCTAACCTGTTGCCT (site AGGAGAACTAG)” and “AGCCACGCTTGGGTTCTAACCTGTTGCCT (site AGCCACACTAG)” are within 0.2 log units of each other in “recombinant barcode read abundance (log10)” value: 0.261 for the first, 0.124 for the second.

Going from “AGCCACGCTTGGGTTCTAACCTGTTGCCT (site AGCCACCCTAG)” to “AGCCACGCTTGGGTTCTAACCTGTTGCCT (site AGCCACGCTAG)”, the “recombinant barcode read abundance (log10)” value rises from 0.27 to 1.11.

Going from “AGCCACGCTTGGGTTCTAACCTGTTGCCT (site AGCCACTCTAG)” to “AGCCATCCTTGGGTTCTAACCTGTTGCAT (site AGCCATCCTAT)”, the “recombinant barcode read abundance (log10)” value rises from 0.153 to 0.723.

Compared with “AGCCATCCTTGGGTTCTAACCTGTTGCAT (site TGCCATCCTAT)”, “AGCCCGCCTTGGGTTCTAACCTGTTGCCT (site AGCCCGCCTAG)” is higher in “recombinant barcode read abundance (log10)” value: 0.0638 for the first, 0.358 for the second.

Going from “AGCCCGCCTTGGGTTCTAACCTGTTGCCT (site CGCCCGCCTAG)” to “AGCCCGCCTTGGGTTCTAACCTGTTGCCT (site GGCCCGCCTAG)”, the “recombinant barcode read abundance (log10)” value falls from 0.39 to 0.178.

“AGCCCGCCTTGGGTTCTAACCTGTTGCCT (site TGCCCGCCTAG)” and “AGCCCTTCTTGGGTTCTAACCTGTTGCTT (site AGCCCTTCTAA)” are within 0.2 log units of each other in “recombinant barcode read abundance (log10)” value: 0.157 for the first, 0.083 for the second.

Going from “AGCCCTTCTTGGGTTCTAACCTGTTGCTT (site GTAGGGACTCG)” to “AGCCTCCCTTGGGTTCTAACCTGTTGCCA (site AGCCTCCCTTG)”, the “recombinant barcode read abundance (log10)” value rises from 0.0698 to 0.663.

“AGCCTCCCTTGGGTTCTAACCTGTTGCCA (site CAGGGGTCTAT)” and “AGCGAGGCTTGGGTTCTAACCTGTTGCCT (site AGCGAAGCTAG)” are within 0.2 log units of each other in “recombinant barcode read abundance (log10)” value: 0.121 for the first, 0.0233 for the second.

“AGCGAGGCTTGGGTTCTAACCTGTTGCCT (site AGCGAGGCTAG)” and “AGCGCGCCTTGGGTTCTAACCTGTTGCTG (site AGCGCGCCTCA)” are within 0.2 log units of each other in “recombinant barcode read abundance (log10)” value: 0.188 for the first, 0.224 for the second.

“AGCGCGCCTTGGGTTCTAACCTGTTGCTG (site GAGTACACTGC)” and “AGCGCTCCTTGGGTTCTAACCTGTTGCCT (site AACGCTCCTAG)” are within 0.2 log units of each other in “recombinant barcode read abundance (log10)” value: 0.00819 for the first, 0.0472 for the second.

First: AGCGCTCCTTGGGTTCTAACCTGTTGCCT (site ACCGCTCCTAG)
Second: AGCGCTCCTTGGGTTCTAACCTGTTGCCT (site AGCGCTCCTAG)
The “recombinant barcode read abundance (log10)” value of the first is lower: 0.305 for the first, 0.68 for the second.

First: AGCGCTCCTTGGGTTCTAACCTGTTGCCT (site ATCGCTCCTAG)
Second: AGCGGCCCTTGGGTTCTAACCTGTTGCCT (site AGCGGACCTAG)
The “recombinant barcode read abundance (log10)” value of the first is lower: 0 for the first, 0.466 for the second.

Compared with “AGCGGCCCTTGGGTTCTAACCTGTTGCCT (site AGCGGCCCTAG)”, “AGCGGCCCTTGGGTTCTAACCTGTTGCCT (site AGCGGGCCTAG)” is lower in “recombinant barcode read abundance (log10)” value: 1.26 for the first, 0.0662 for the second.

“AGCGGCCCTTGGGTTCTAACCTGTTGCCT (site AGCGGTCCTAG)” and “AGCTAATCTTGGGTTCTAACCTGTTGCTT (site AGCTAATCTAA)” are within 0.2 log units of each other in “recombinant barcode read abundance (log10)” value: 0.0761 for the first, 0.0369 for the second.

Compared with “AGCTAATCTTGGGTTCTAACCTGTTGCTT (site GAGCTGCCTTG)”, “AGCTATGCTTGGGTTCTAACCTGTTGCCT (site AGCTATGCTAG)” is higher in “recombinant barcode read abundance (log10)” value: 0.0324 for the first, 0.317 for the second.

“AGCTATGCTTGGGTTCTAACCTGTTGCCT (site GAAATACCTCC)” and “AGCTGTCCTTGGGTTCTAACCTGTTGCAG (site AGCTGTCCTCT)” are within 0.2 log units of each other in “recombinant barcode read abundance (log10)” value: 0.138 for the first, 0.273 for the second.

First: AGCTGTCCTTGGGTTCTAACCTGTTGCAG (site TAGGCGGCTAC)
Second: AGCTTAGCTTGGGTTCTAACCTGTTGCCA (site AGCTTAGCTAG)
The “recombinant barcode read abundance (log10)” value of the first is lower: 0.0556 for the first, 0.484 for the second.

“AGCTTAGCTTGGGTTCTAACCTGTTGCCA (site AGCTTAGCTCG)” and “AGCTTAGCTTGGGTTCTAACCTGTTGCCA (site AGCTTAGCTGG)” are within 0.2 log units of each other in “recombinant barcode read abundance (log10)” value: 0.365 for the first, 0.463 for the second.

First: AGCTTAGCTTGGGTTCTAACCTGTTGCCA (site AGCTTAGCTTG)
Second: AGGAACACTTGGGTTCTAACCTGTTGCCT (site AGAAACACTAG)
The “recombinant barcode read abundance (log10)” value of the first is lower: 0.387 for the first, 1.36 for the second.

Going from “AGGAACACTTGGGTTCTAACCTGTTGCCT (site AGGAACACTAG)” to “AGGAACACTTGGGTTCTAACCTGTTGCTG (site AGGAACACTAA)”, the “recombinant barcode read abundance (log10)” value falls from 1.94 to 0.803.

First: AGGAACACTTGGGTTCTAACCTGTTGCTG (site AGGAACACTCA)
Second: AGGAACTCTTGGGTTCTAACCTGTTGCAT (site AGGAACTCTAT)
The “recombinant barcode read abundance (log10)” value of the first is higher: 2.65 for the first, 2.44 for the second.

Compared with “AGGAACTCTTGGGTTCTAACCTGTTGCAT (site GGGAACCCTAT)”, “AGGAACTCTTGGGTTCTAACCTGTTGCTT (site AGGAACTCTAA)” is higher in “recombinant barcode read abundance (log10)” value: 0.0839 for the first, 1.87 for the second.

First: AGGAACTCTTGGGTTCTAACCTGTTGCTT (site AGGAGCTCTTA)
Second: AGGAAGACTTGGGTTCTAACCTGTTGCCA (site AGGAAGACTTG)
The “recombinant barcode read abundance (log10)” value of the first is lower: 0.0561 for the first, 0.948 for the second.

“AGGAAGACTTGGGTTCTAACCTGTTGCCA (site AGGCAGACTTG)” and “AGGAAGACTTGGGTTCTAACCTGTTGCCA (site AGGGAGACTTG)” are within 0.2 log units of each other in “recombinant barcode read abundance (log10)” value: 0.0465 for the first, 0.239 for the second.

Compared with “AGGAAGACTTGGGTTCTAACCTGTTGCCA (site AGGTAGACTTG)”, “AGGAAGACTTGGGTTCTAACCTGTTGCCG (site AGGAAGACTCC)” is higher in “recombinant barcode read abundance (log10)” value: 0.412 for the first, 0.883 for the second.

Going from “AGGAAGACTTGGGTTCTAACCTGTTGCCG (site AGGAAGACTCG)” to “AGGACCACTTGGGTTCTAACCTGTTGCCA (site AGGACCACTTG)”, the “recombinant barcode read abundance (log10)” value falls from 1.95 to 0.868.

From the supplement of paper PMC11208160
